These compounds were tested on Vibrio harveyi MM32, AI-2 induced luminescence, 5 h (assay: inhibitors of AI-2-induced luminescence in V. harveyi MM32, dose response, mechanism study for V. harveyi quorum sensing inhibitors, strain MM32, dry powder (AID 493118)).
In the case of `C=Cn1c(C(=O)O)ccc1-c1ccc(CC)cc1`, the AC50 is reported as 2140 nM.
Compound `O=C1C=C/C(=C/Br)O1` has an AC50 of 4330 nM.
In the case of `COc1cc(NC(=O)CN2C(=O)NC(c3ccccc3)(c3ccccc3)C2=O)cc(OC)c1`, the AC50 is reported as 615 nM.
`Cn1cnc(S(=O)(=O)Nc2ccc(OC(F)(F)F)cc2)c1` was tested, and the AC50 was 1950 nM.
`Cc1cccc(NS(=O)(=O)c2ccc(Oc3ccccc3)cc2)n1` showed an AC50 of 898 nM.
`CCc1ccc(S(=O)(=O)Nc2ccc(Br)cn2)cc1` was tested, and the AC50 was 1400 nM.

Source: PubChem BioAssay AID493118 (Broad Institute, 2011)
